Reference: patent publication US11930819B2, “Antimicrobial compositions with enhanced efficacy” (ECOLAB USA INC., priority 2017, dated 2024)
“Also recorded” adds a separate entry of the source.

Experiments:
Format in all cases: cell-based
[1] = tested on: Serratia marcescens ATCC 14756; test: Time Kill Efficacy, chelant comparison; settings: chelant added to cationic active-containing base formula
Experimental: Testing was performed to assess performance of differing chelants. Multiple amino acid based chelants were tested in exemplary compositions of the invention and tested against a control formulation containing no chelant.
Formula 5A served as the control having no chelant. Formulas 5B and 5C included GLDA and MGDA, respectively, for comparative testing against each other and the control. The compositions were inoculated with Serratia marcescens ATCC 14756 for 30 seconds at room temperature. Before adding the antimicrobial compositions, the inoculum numbers were measured (CFO/mL). The average count was […] providing a log average of 8.06. The inoculated surface was contacted with the various formulations for 30 seconds and the log reduction was measured.

[2] = tested on: Serratia marcescens ATCC 14756; test: in vitro Time Kill testing (ASTM E 2315), Serratia marcescens; settings: 1.2% cationic surfactant with 0.6% benzalkonium chloride, Table 6
Experimental: (§1) In Examples 1-4, the survival of challenged organisms exposed to an antimicrobial test composition was measured using in vitro Time Kill testing, based on ASTM E 2315 Standard Guide for Assessment of Antimicrobial Activity Using a Time Kill Procedure. Utilizing this method, the inoculum is prepared by growing a microbial culture using a D/E agar medium. The microbial population then is washed from the agar with sterile physiological saline and the population of the microbial suspension is adjusted to around 10^8 colony forming units (cfu) per ml. An aliquot of the test formula, or a dilution thereof, is brought into contact with this known population of bacteria at ambient temperature. The test composition is neutralized after a set amount of time, which arrests the antimicrobial activity of the test sample. The log reduction from the original bacteria population is calculated using the following formula: log10 reduction=log10(control)−log10(test sample survivors) Each test was performed in duplicate and the average log reduction reported.
Once it was determined that cationic surfactants with chain lengths having 18 or less carbons provided enhanced microbiological efficacy, three such cationic surfactants were evaluated against Serratia marcescens, a Gram negative microorganism. […]

[3] = tested on: Escherichia coli ATCC 11229; test: in vitro Time Kill testing (ASTM E 2315), cationic-compatible surfactants, Table 4; settings: 1% surfactant in 0.2% benzalkonium chloride formula
Experimental: as §1, with “reported. The efficacy of formulations with differing cationic-compatible surfactants with the same alkyl chain length is outlined in Tables 3 and 4. In each instance, citric acid and/or potassium hydroxide were used to maintain a pH of 6, and water was added quantum satis. […]” for “reported.”

Compound	effect of chelant on antimicrobial efficacy of base formula [1]	degree of microbiological efficacy [2]	impact on microbiological efficacy [3]
O=C(O)CC[C@@H](C(=O)O)N(CC(=O)O)CC(=O)O [GLDA, Glutamic acid diacetic acid]	did not show any enhancement of antimicrobial efficacy		
CCCCCCCCCCCC[N+](C)(C)C.[Cl-] [Laurtrimonium chloride, Lauryl Trimethyl Ammonium Chloride]		highest degree of efficacy	
CC(C(=O)O)N(CC(=O)O)CC(=O)O (stereo not drawn) [MGDA, Methylglycinediacetic acid]	significantly enhance the biocidal activity; also recorded: much higher log reduction		
CCCCCCCCCCCCCCCC(=O)NCCC[N+](C)(C)C.[Cl-] [Palmitamidopropyl trimonium chloride, Palmitamidopropyl Trimonium Chloride]		lowest degree of microbiological efficacy	
Cocamidopropyl Betaine			significant negative impact on microbiological efficacy
Coco Glucoside			negative impact on microbiological efficacy
